Data reported in ChEMBL document CHEMBL6087486, “Monomeric or Homodimer Conjugates of Fibroblast Activation Protein Inhibitor and Cyanine 7 Bearing a Meso-Chloride as Near-Infrared Fluorescence Probes: Design, Synthesis, and Comparative In Vivo Imaging of Distinct Breast Cancer Subtypes” (J Med Chem, 2025).
Activity calls are given as the source filed them. The rule behind the calls is not given here.

How the values were obtained:
MCF7 [1] = test: Cytotoxicity against human MCF7 cells at >25 uM after 24 hrs by CCK8 assay; type: functional, cell-based
MDA-MB-231 [2] = test: Cytotoxicity against human MDA-MB-231 cells at >25 uM after 24 hrs by CCK8 assay; type: functional, cell-based
[3] = Biodistribution in tumor of NCG mouse xenografted with human MDA-MB-231 cells assessed as fluorescence intensity at 15 uM, iv measured after 4 hrs by IVIS analysis; type: ADME, organism-based, Neoplasm; details: in vivo
[4] = Emission property of compound in methanol assessed as maximal wavelength at 0.5 to 4 uM by […]; type: physicochemical; details: dose 0.5-4 µM
[5] = Metabolic stability in mouse liver microsomes assessed as hepatic clearance rate; type: ADME, Microsome; details: read-out: CLH
[6] = Biodistribution in tumor of NCG mouse xenografted with human MDA-MB-231 cells assessed as maximum fluorescence intensity at 15 uM, iv measured for 2 to 48 hrs by IVIS analysis; type: ADME, organism-based, Neoplasm; details: in vivo, time 2-48 hrs
[7] = C0 in ICR mouse at 2 mg/kg, iv measured upto 24 hrs by LC-MS/MS analysis; type: ADME, organism-based; details: in vivo
[8] = Apparent volume of distribution in ICR mouse at 2 mg/kg, iv measured upto 24 hrs by LC-MS/MS analysis; type: ADME, organism-based; details: in vivo, read-out: Vz
MCF7 [9] = test: Cytotoxicity against human MCF7 cells assessed as survival rate at 20 uM after 24 hrs by CCK8 assay relative to control; type: functional; details: read-out: Survival
[10] = Metabolic stability in mouse liver microsomes assessed as half life; type: ADME, Microsome
[11] = Metabolic stability in human liver microsomes assessed as half life; type: ADME, Microsome
[12] = Biodistribution in tumor of NCG mouse xenografted with human MDA-MB-231 cells assessed as increase in retention time at 15 uM, iv measured for 0.5 to 72 hrs by IVIS analysis; type: ADME, organism-based, Neoplasm; details: in vivo, time 0.5-72 hrs
[13] = Biodistribution in tumor of NCG mouse xenografted with human MCF7 cells at 15 uM, iv measured for 0.5 to 72 hrs by IVIS analysis; type: ADME, organism-based, Neoplasm; details: in vivo, time 0.5-72 hrs
MCF7 [14] = test: Cytotoxicity against human MCF7 cells at; type: functional, cell-based; details: dose < 2.0 µM, time 24.0 hrs
[15] = Clearance in ICR mouse at 2 mg/kg, iv measured upto 24 hrs by LC-MS/MS analysis; type: ADME, organism-based; details: in vivo
[16] = Absorption property of compound in methanol assessed as maximal wavelength at 0.5 to 4 uM by UV-vis spectrophotometry; type: physicochemical; details: dose 0.5-4 µM
[17] = Drug uptake in human MDA-MB-231 cells assessed as fold increase in fluorescence intensity at 2 uM incubated for 2 hrs by CLSM analysis relative to control; type: functional
[18] = Volume of distribution at steady state in ICR mouse at 2 mg/kg, iv measured upto 24 hrs by LC-MS/MS analysis; type: ADME, organism-based; details: in vivo, read-out: Vdss
[19] = Biodistribution in tumor of NCG mouse xenografted with human MCF7 cells assessed as increase in retention time at 15 uM, iv measured for 0.5 to 72 hrs by IVIS analysis; type: ADME, organism-based, Neoplasm; details: in vivo, time 0.5-72 hrs
[20] = Metabolic stability in human liver microsomes assessed as intrinsic clearance; type: ADME, Microsome; details: read-out: CLH
[21] = AUC (0 to infinity) in ICR mouse at 2 mg/kg, iv measured upto 24 hrs by LC-MS/MS analysis; type: ADME, organism-based; details: in vivo
MDA-MB-231 [22] = test: Cytotoxicity against human MDA-MB-231 cells at; type: functional, cell-based; details: dose < 2.0 µM, time 24.0 hrs
[23] = MRT (0 to t) in ICR mouse at 2 mg/kg, iv measured upto 24 hrs by LC-MS/MS analysis; type: ADME, organism-based; details: in vivo
[24] = AUC (0 to t) in ICR mouse at 2 mg/kg, iv measured upto 24 hrs by LC-MS/MS analysis; type: ADME, organism-based; details: in vivo
[25] = Drug uptake in human MCF7 cells assessed as fold increase in fluorescence intensity at 2 uM incubated for 2 hrs by CLSM analysis relative to control; type: functional
[26] = Biodistribution in tumor of NCG mouse xenografted with human MDA-MB-231 cells 15 uM, iv measured upto 72 hrs by IVIS analysis; type: ADME, organism-based, Neoplasm; details: in vivo
[27] = Metabolic stability in human liver microsomes assessed as hepatic clearance rate; type: ADME, Microsome; details: read-out: CLH
[28] = Tlast in ICR mouse at 2 mg/kg, iv measured upto 24 hrs by LC-MS/MS analysis; type: ADME, organism-based; details: in vivo
[29] = Biodistribution in liver of NCG mouse xenografted with human MCF7 cells at 15 uM, iv measured after 4 hrs by IVIS analysis; type: ADME, organism-based; details: in vivo
[30] = Half life in ICR mouse at 2 mg/kg, iv measured upto 24 hrs by LC-MS/MS analysis; type: ADME, organism-based; details: in vivo
[31] = Ratio of drug uptake in tumor to liver of NCG mouse xenografted with human MDA-MB-231 cells at 15 uM, iv measured upto 72 hrs by IVIS analysis; type: ADME, organism-based; details: in vivo
MDA-MB-231 [32] = test: Cytotoxicity against human MDA-MB-231 cells assessed as survival rate at 20 uM after 24 hrs by CCK8 assay relative to control; type: functional; details: read-out: Survival
[33] = MRT (0 to infinity) in ICR mouse at 2 mg/kg, iv measured upto 24 hrs by LC-MS/MS analysis; type: ADME, organism-based; details: in vivo
[34] = Metabolic stability in mouse liver microsomes assessed as intrinsic clearance; type: ADME, Microsome; details: read-out: CLH
[35] = Ratio of drug uptake in tumor to liver of NCG mouse xenografted with human MCF7 cells at 15 uM, iv measured after 72 hrs by IVIS analysis; type: ADME, organism-based; details: in vivo
[36] = Biodistribution in liver of NCG mouse xenografted with human MDA-MB-231 cells at 15 uM, iv measured for 24 hrs by IVIS analysis; type: ADME, organism-based; details: in vivo
MCF7 [37] = test: Antitumor activity against human MCF7 cells xenografted in mouse assessed as obvious effect at 10 to 20 mg/kg, iv administered on days 1, 6, 11 and 16 measured on day 21; type: functional, organism-based; details: dose 10-20 mg/kg, time 21.0 day
[38] = Biodistribution in tumor of NCG mouse xenografted with human MCF7 cells at 15 uM, iv measured after 1 to 2 hrs by IVIS analysis; type: ADME, organism-based, Neoplasm; details: in vivo, time 1-2 hrs
MCF7 [39] = test: Cytotoxicity against human MCF7 cells at 20 uM after 24 hrs by CCK8 assay relative to control; type: functional
MCF7 [40] = test: Cytotoxicity against human MCF7 cells at >=5 uM after 24 hrs by CCK8 assay; type: functional, cell-based
MCF7 [41] = test: Antitumor activity against human MCF7 cells xenografted in mouse assessed as tumor shrinkage at 20 mg/kg, iv administered on days 1, 6, 11 and 16 measured on day 10; type: functional, organism-based; details: time 10.0 day
[42] = Ratio of drug uptake in tumor to liver of NCG mouse xenografted with human MDA-MB-231 cells at 15 uM, iv measured after 48 hrs by IVIS analysis; type: ADME, organism-based; details: in vivo
[43] = Biodistribution in tumor of NCG mouse xenografted with human MDA-MB-231 cells at 15 uM, iv measured for 24 hrs by IVIS analysis; type: ADME, organism-based, Neoplasm; details: in vivo
[44] = Biodistribution in liver of NCG mouse xenografted with human MCF7 cells at 15 uM, iv measured after 0.5 hrs by IVIS analysis; type: ADME, organism-based; details: in vivo
MCF7 [45] = test: Antitumor activity against human MCF7 cells xenografted in mouse assessed as decrease in tumor volume at 10 mg/kg, iv administered on days 1, 6, 11 and 16 measured on day 10; type: functional, organism-based; details: time 10.0 day
[46] = Toxicity in mouse xenografted with human MCF7 cells assessed as change in body weight at 10 to 20 mg/kg, iv administered on days 1, 6, 11 and 16 measured for 21 days; type: organism-based; details: in vivo, 504 h, dose 10-20 mg/kg, time 21 day
MCF7 [47] = test: Antitumor activity against human MCF7 cells xenografted in mouse assessed as tumor growth inhibition administered intravenously on days 1, 6, 11 and 16 measured on day 21; type: functional; details: dose 10-20 mg/kg, route iv, time 21.0 day
[48] = Biodistribution in tumor of NCG mouse xenografted with human MDA-MB-231 cells assessed as maximum fluorescence intensity at 15 uM, iv measured for 24 hrs by IVIS analysis; type: ADME, organism-based, Neoplasm; details: in vivo
[49] = Biodistribution in tumor of NCG mouse xenografted with human MCF7 cells assessed as maximum fluorescence intensity at 15 uM, iv measured after 8 hrs by IVIS analysis; type: ADME, organism-based, Neoplasm; details: in vivo
MDA-MB-231 [50] = test: Cytotoxicity against human MDA-MB-231 cells assessed as survival rate upto 20 uM after 24 hrs by CCK8 assay relative to control; type: functional; details: up to 20 µM

SMILES	Activity (MCF7 [1])	Activity (MDA-MB-231 [2])	Activity [4]	CLint scaled [5]	C0 at 24 h [7]	Vd [8]	half-life [10]	half-life [11]	Activity (MCF7 [14])	clearance [15]	Activity [16]	fold change (FC) [17]	Vd [18]	microsomal CLint [20]	AUC(0-inf) [21]	Activity (MDA-MB-231 [22])	MRT last at 24 h [23]	AUC(0-t) at 24 h [24]	fold change (FC) [25]	CLint scaled [27]	further results
CN(CCCN1CCN(C(=O)CN2CCN(CC(=O)O)CCN(CC(=O)O)CCN(CC(=O)O)CC2)CC1)c1ccc2nccc(C(=O)NCC(=O)N3CC(F)(F)C[C@H]3C#N)c2c1	Active	Active	–	–	–	–	–	–	–	–	–	–	–	–	–	–	–	–	–	–	–
CN(CCCN1CCN(C(=O)CCOCCOCCOCCOCCn2cc(CCCN3/C(=C/C=C4\CCCC(/C=C/C5=[N+](CCCc6cn(CCOCCOCCOCCOCCC(=O)N7CCN(CCCN(C)c8ccc9nccc(C(=O)NCC(=O)N%10CC(F)(F)C[C@H]%10C#N)c9c8)CC7)nn6)c6ccccc6C5(C)C)=C4Cl)C(C)(C)c4ccccc43)nn2)CC1)c1ccc2nccc(C(=O)NCC(=O)N3CC(F)(F)C[C@H]3C#N)c2c1	–	–	823 nm	1240 mL/min/kg	16800 ng/mL	9.15 L/kg	4.4 min	3.2 min	inactive	9 mL/min/kg	784 nm	81	0.583 L/kg	430 µL/min/mg	3650 ng·h/mL	inactive	36.2 min	3600 ng·h/mL	45	387 mL/min/kg	Flu intensity [3]: > 2 10^8No_unit; Flu intensity [6]: 2.5 10^8No_unit; viability at 20 µM (MCF7 [9]): 60%; Drug uptake [12]: Active; Drug uptake [13]: Active; Drug uptake [19]: Active; Drug uptake [26]: Active; Tlast [28]: 24 h; Drug uptake [29]: Not_active; half-life [30]: 690 min; Ratio [31]: > 3; viability at 20 µM (MDA-MB-231 [32]): 67%; MRT inf [33]: 63.6 min; microsomal CLint [34]: 313 µL/min/mg; Ratio [35]: 2.07
CN(CCCN1CCN(C(=O)OC(C)(C)C)CC1)c1ccc2nccc(C(=O)NCC(=O)N3CC(F)(F)C[C@H]3C#N)c2c1	Active	Active	–	–	–	–	–	–	–	–	–	–	–	–	–	–	–	–	–	–	–
C#CCCCN1/C(=C/C=C2\CCCC(/C=C/C3=[N+](CCCc4cn(CCOCCOCCOCCOCCC(=O)N5CCN(CCCN(C)c6ccc7nccc(C(=O)NCC(=O)N8CC(F)(F)C[C@H]8C#N)c7c6)CC5)nn4)c4ccccc4C3(C)C)=C2Cl)C(C)(C)c2ccccc21	–	–	820 nm	1290 mL/min/kg	829 ng/mL	3.92 L/kg	4.3 min	5.5 min	inactive	204 mL/min/kg	783 nm	431	2.45 L/kg	253 µL/min/mg	166 ng·h/mL	inactive	10.4 min	165 ng·h/mL	280	228 mL/min/kg	Drug uptake [36]: Not_active; Activity (MCF7 [37]): Active; Drug uptake [38]: Active; Activity (MCF7 [39]): 4.5%; Activity (MCF7 [40]): Active; Activity (MCF7 [41]): Active; Ratio [42]: 4.47; Drug uptake [43]: Active; Drug uptake [44]: Not_active; Activity (MCF7 [45]): inactive; Activity [46]: Non-toxic; Tlast [28]: 1.5 h; inhibition (MCF7 [47]): Dose-dependent-effect; half-life [30]: 12.5 min; Flu intensity [48]: 8.43 10^7No_unit; MRT inf [33]: 11.4 min; Flu intensity [49]: 6.13 10^7No_unit; microsomal CLint [34]: 325 µL/min/mg; Survival (MDA-MB-231 [50]): ~80%; Ratio [35]: 2.43
